Assay results: patent US20140357487A1, “PLANTS HAVING INCREASED TOLERANCE TO HERBICIDES” (BASF SE, priority 2011, published 2014)

Key:
[1] = tested on: Arabidopsis wildtype control plants; experiment: Arabidopsis growth inhibition in 48-well plates, wildtype control; format: in vivo, Arabidopsis thaliana; settings: plant growth IC50 of line divided by that of wildtype plants
Method: Depending on the species, the plants are kept at 10-25° C. or 20-35° C. The test period extends over 3 weeks. During this time, the plants are tended and their response to the individual treatments is evaluated. Herbicide injury evaluations are taken at 2 and 3 weeks after treatment. Plant injury is rated on a scale of 0 to 9, 0 being no injury and 9 being complete death. Tolerance to coumarone-derivative herbicides can also be assessed in Arabidopsis. In this case transgenic Arabidopsis thaliana plants are assayed for improved tolerance to coumarone-derivative herbicides in 48-well plates. Seeds are surface sterilized by stirring for 5 min in ethanol+water (70+30 by volume), rinsing one time with ethanol+water (70+30 by volume) and two times with a sterile, deionized water. The seeds are resuspended in 0.1% agar dissolved in water (w/v). Four to five seeds per well are plated on solid nutrient medium consisting of half-strength Murashige Skoog nutrient solution, pH 5.8 (Murashige and Skoog (1962) Physiologia Plantarum 15: 473-497). […] Seven to ten days after seeding growth inhibition is evaluated by comparison to wild type plants. Tolerance factor is calculated by dividing the plant growth IC50 value of transgenic plants containing a HPPD and/or HST sequence by that of wildtype plants. […]

[2] = tested on: transgenic soybean plants, Glycine Max HPPD, event SDS-10298; experiment: Greenhouse testing of transgenic soybean plants, Glycine Max HPPD; format: in vivo; settings: soybean SDS-10298, 5 days after herbicide treatment, average of 8 T1
Excerpt: (§1) Various methods for the production of stably transformed plants are well known in the art. Coumarone-derivative herbicide tolerant soybean (Glycine max) or corn (Zea mays) plants can be produced by a method described by Olhoft et al. (US patent 2009/0049567). Briefly, HPPD or HST encoding polynucleotides are cloned into a binary vector using standard cloning techniques as described by Sambrook et al. (Molecular cloning (2001) Cold Spring Harbor Laboratory Press). The final vector construct contains an HPPD or HST encoding sequence flanked by a promoter sequence (e.g. the ubiquitin promoter (PcUbi) sequence) and a terminator sequence (e.g. the nopaline synthase terminator (NOS) sequence) and a resistance marker gene cassette (e.g. AHAS) (FIG. 2). Optionally, the HPPD or HST gene can provide the means of selection. Agrobacterium-mediated transformation is used to introduce the DNA into soybean's axillary meristem cells at the primary node of seedling explants. After inoculation and co-cultivation with Agrobacteria, the explants are transferred to shoot induction medium without selection for one week. The explants are subsequently transferred to shoot induction medium with 1-3 μM imazapyr (Arsenal) for 3 weeks to select for transformed cells. Explants with healthy callus/shoot pads at the primary node are then transferred to shoot elongation medium containing 1-3 μM imazapyr until a shoot elongates or the explant dies. After regeneration, transformants are transplanted to soil in small pots, placed in growth chambers (16 hr day/8 hr night; 25° C. day/23° C. night; 65% relative humidity; 130-150 mE m−2 s−1) and subsequently tested for the presence of the T-DNA via Taqman analysis. After a few weeks, healthy, transgenic positive, single copy events are transplanted to larger pots and allowed to grow in the growth chamber. Transformation of corn plants is done by a method described by McElver and Singh (WO 2008/124495). Plant transformation vector constructs containing HPPD or HST sequences are introduced into maize immature embryos via Agrobacterium-mediated transformation. Transformed cells are selected in selection media supplemented with 0.5-1.5 μM imazethapyr for 3-4 weeks. Transgenic plantlets are regenerated on plant regeneration media and rooted afterwards. Transgenic plantlets are subjected to TaqMan analysis for the presence of the transgene before being transplanted to potting mixture and grown to maturity in greenhouse. Arabidopsis thaliana is transformed with HPPD or HST sequences by floral dip method as described by McElver and Singh (WO 2008/124495). Transgenic Arabidopsis plants are subjected to Tag Man analysis for analysis of the number of integration loci. Transformation of Oryza sativa (rice) are done by protoplast transformation as described by Peng et al. (U.S. Pat. No. 6,653,529)
(§2) Transgenic plants expressing heterologous HPPD or HST enzymes are tested for tolerance against coumarone-derivative herbicides in greenhouse experiments.
(§3) For post emergence treatment, the test plants are first grown to a height of 3 to 15 cm, depending on the plant habit, and only then treated with the herbicides. For this purpose, the test plants are either sown directly and grown in the same containers, or they are first grown separately and transplanted into the test containers a few days prior to treatment.
(§4) Depending on the species, the plants are kept at 10-25° C. or 20-35° C. The test period extends over 3 weeks. During this time, the plants are tended and their response to the individual treatments is evaluated. […] Tolerance to coumarone-derivative herbicides can also be assessed in Arabidopsis. In this case transgenic Arabidopsis thaliana plants are assayed for improved tolerance to coumarone-derivative herbicides in 48-well plates. Seeds are surface sterilized by stirring for 5 min in ethanol+water (70+30 by volume), rinsing one time with ethanol+water (70+30 by volume) and two times with a sterile, deionized water. […]

[3] = tested on: corn plants, wild type (transgene none); experiment: Greenhouse testing of corn plants, wild type; format: in vivo, Zea mays; settings: 5 days after herbicide treatment
Excerpt: as §1, §2, §3, §4

[4] = tested on: transgenic corn plants, Arabidopsis M335H, event SDM-71923; experiment: Greenhouse testing of transgenic corn plants, Arabidopsis M335H; format: in vivo, Zea mays; settings: corn SDM-71923, 5 days after herbicide treatment, average of 8 T1
Excerpt: as §1, §2, §3, §4

[5] = tested on: transgenic corn plants, Arabidopsis Q293S, event SDM-71864; experiment: Greenhouse testing of transgenic corn plants, Arabidopsis Q293S; format: in vivo, Zea mays; settings: corn SDM-71864, 5 days after herbicide treatment, average of 8 T1
Excerpt: as §1, §2, §3
Depending on the species, the plants are kept at 10-25° C. or 20-35° C. […] During this time, the plants are tended and their response to the individual treatments is evaluated. […] Tolerance to coumarone-derivative herbicides can also be assessed in Arabidopsis. In this case transgenic Arabidopsis thaliana plants are assayed for improved tolerance to coumarone-derivative herbicides in 48-well plates. Seeds are surface sterilized by stirring for 5 min in ethanol+water (70+30 by volume), rinsing one time with ethanol+water (70+30 by volume) and two times with a sterile, deionized water. […]

CC1=NOC(c2c(Cl)ccc(C3=C(O)c4ncccc4C(C)(C)S3(=O)=O)c2Cl)C1 (centres unmarked) [Inhibitor 1, 7-[2,4-dichloro-3-(3-methyl-4,5-dihydroisoxazol-5-yl)phenyl]-5,5-dimethyl-6,6-dioxo-thiopyrano[4,3-b]pyridin-8-ol]
Tolerance factor [1]: 1

CC1(C)c2cccnc2C(O)=C(c2ccc(Cl)nc2Cl)S1(=O)=O [Inhibitor 2, 7-(2,6-dichloro-3-pyridyl)-5,5-dimethyl-6,6-dioxo-thiopyrano[4,3-b]pyridin-8-ol]
Tolerance factor [1]: 1
Injury evaluation, scale of 1-100, bleaching phenotype ([2]; 2.5 g/ha): 4
Injury evaluation, scale of 1-100, bleaching phenotype ([2]; 10 g/ha): 5
Injury evaluation, scale of 1-100, bleaching phenotype ([2]; 40 g/ha): 17
Injury evaluation, scale of 1-100, bleaching phenotype ([3]; 2.5 g/ha): 20
Injury evaluation, scale of 1-100, bleaching phenotype ([3]; 10 g/ha): 45
Injury evaluation, scale of 1-100, bleaching phenotype ([3]; 40 g/ha): 33
Injury evaluation, scale of 1-100, bleaching phenotype ([4]; 2.5 g/ha): 6
Injury evaluation, scale of 1-100, bleaching phenotype ([4]; 10 g/ha): 4
Injury evaluation, scale of 1-100, bleaching phenotype ([4]; 40 g/ha): 6
Injury evaluation, scale of 1-100, bleaching phenotype ([5]; 2.5 g/ha): 4
Injury evaluation, scale of 1-100, bleaching phenotype ([5]; 10 g/ha): 17
Injury evaluation, scale of 1-100, bleaching phenotype ([5]; 40 g/ha): 15

Cc1c(C(=O)c2cnn(C)c2O)ccc(S(C)(=O)=O)c1C1=NOCC1 [Topramezone, reference compound]
Injury evaluation, scale of 1-100, bleaching phenotype ([2]; 6.25 g/ha): 7
Injury evaluation, scale of 1-100, bleaching phenotype ([2]; 25 g/ha): 18
Injury evaluation, scale of 1-100, bleaching phenotype ([2]; 100 g/ha): 28
Injury evaluation, scale of 1-100, bleaching phenotype ([3]; 6.25 g/ha): 0
Injury evaluation, scale of 1-100, bleaching phenotype ([3]; 25 g/ha): 0
Injury evaluation, scale of 1-100, bleaching phenotype ([3]; 100 g/ha): 0
Injury evaluation, scale of 1-100, bleaching phenotype ([4]; 6.25 g/ha): 0
Injury evaluation, scale of 1-100, bleaching phenotype ([4]; 25 g/ha): 0
Injury evaluation, scale of 1-100, bleaching phenotype ([4]; 100 g/ha): 0
Injury evaluation, scale of 1-100, bleaching phenotype ([5]; 6.25 g/ha): 1
Injury evaluation, scale of 1-100, bleaching phenotype ([5]; 25 g/ha): 4
Injury evaluation, scale of 1-100, bleaching phenotype ([5]; 100 g/ha): 6
